Experiments:
Akt = type: cell-based, rat
Experimental: (§1) Cells were deprived of PDGF-AA for 5 h before re-exposure to PDGF-AA (10 ng/ml) for 1 h for Western blot or 6 h for luciferase assays of pathway activation. Transient transfection was performed using Fugene6 (Roche, Basel, Switzerland ) transfection solution according to the manufacturer's protocol. For the luciferase assay, cells seeded in 12-well plates were transfected with a reporter plasmid SRE-Luc(firefly) or NF-κB-Luc(firefly) (BD-Clontech, Palo Alto, Calif., United States) and an internal control plasmid pRLSV40-LUC. Analyses of luciferase activity were performed according to the protocol of the Dual Luciferase Assay System (Promega, Madison, Wis., United States), which uses an internal control of Renilla luciferase for quantification, and relative light units were measured using a luminometer.
(§2) Anti-phosphorylated Erk monoclonal, anti-Erk monoclonal, anti-TrkC polyclonal anti-Fyn polyclonal, anti-EGFR polyclonal, anti-c-Met polyclonal, anti-phospho-tyrosine monoclonal, and anti-PDGFRα polyclonal antibodies were obtained from Santa Cruz Biotechnology (Santa Cruz, Calif., United States). Anti-c-Cbl monoclonal antibody was obtained from BD PharMingen (San Diego, Calif., United States). Anti-phosphorylated Akt monoclonal and anti-Akt polyclonal antibodies were obtained from Cell Signaling Technology (Beverly, Mass., United States). Anti-phosphorylated PDGPRα polyclonal antibody was obtained from Biosource (Carlsbad, Calif., United States). The cell culture samples were collected and lysed in RAPI buffer, whereas dissected tissue samples were sonicated in RAPI buffer. Samples were resolved on SDS-PAGE gels and transferred to PVDF membranes (PerkinElmer Life Science. Wellesley, Mass., United States), After being blocked in 5% skim milk in PBS containing 0.1% Tween 20, membranes were incubated with a primary antibody, followed by incubation with an HRP-conjugated secondary antibody (Santa Cruz Biotechnology). Membranes were visualized using Western Blotting Luminol Reagent (Santa Cruz Biotechnology). All analyses of signaling pathway components were conducted in the presence of ligand for the receptor pathway under analysis (either PDGF-AA for PDGFRα, NT-3 or TrkC, HGF for c-Met, or EGF for EGFR).

Erk1/2 = type: cell-based, rat
Experimental: as §1, §2

PDGFRα [1] = type: cell-based, rat; settings: for effect on MeHg-induced reductions in levels of PDGFRα: together with MeHg; for effect on Pb- and paraquat-induced reductions in levels of PDGFRα: together with Pb (1 μM) or paraquat (5 μM)
EGFR = type: cell-based, rat
From the text: as §2

TrkC = type: cell-based, rat
From the text: as §2

c-Met = type: cell-based, rat
From the text: as §2

c-Cbl [2] = type: cell-based, rat
Experimental: (§3) For the co-immunoprecipitation assay, anti-c-Cbl monoclonal antibody (BD PharMingen) or anti-PDGFRα polyclonal antibody (Santa Cruz Biotechnology) was added to the pre-cleared cell lysates (250 μg of total protein), and the mixtures were gently rocked for 2 h at 4° C. A total of 30 μl of protein A/G agarose was then added to the mixture followed by rotating at 4° C. overnight. The protein A/G agarose was then spun down and washed thoroughly three times. The precipitates were resolved on an 8% SDS-PAGE gel and then were subjected to Western blot analysis using an anti-p-Tyr (for c-Cbl phosphorylation assay) or ubiquitin (for PDGFR ubiquitylation assay) antibody (Santa Cruz Biotechnology).

O-2A/OPCs [3] = assay: MTT+ cells in EtOH-exposed O-2A/OPCs; type: cell-based, rat; settings: cells infected with empty virus; 0.5% EtOH, 72 hrs
Experimental: Twenty-four hr after transfection, medium was changed into DMEM/F12(SATO-) supplemented with 10 ng/ml PDGF-AA. Virus supernatant was collected forty-eight hr post-transfection, filtered through 0.45 um filter to remove non-adherent cells and cellular debris, frozen in small aliquots on dry ice, and stored at −80° C. Twenty-four hr prior to infection with either DN-c-Cbl virus or backbone virus, O-2A cells were seeded. The following day, the culture media was aspirated and replaced with virus supernatant diluted 1:1 in the O-2A growth media. Media was then changed into O-2. A growth media after eight hr or overnight. Twenty-four hr after infection, the cells were collected by trypsinization and reseeded in the selective media (growth media+200 ng/ml puromycin). By the next day, all non-infected cells were floating and presumably dead or dying. The infected cells were allowed to proliferate for two days, and then collected and re-seeded for these experiments.

Fyn [4] = type: cell-based, rat; settings: EtOH exposure 30 min
O-2A/OPCs [5] = assay: In vitro BrdU incorporation assay; type: cell-based, rat; settings: with TMX, 2 days
Experimental: Cell proliferation was assessed by bromodeoxyuridine (BrdU) incorporation and by using the mouse anti-BrdU mAb IgGl (1:100; Sigma) to label dividing cells. Stained cells on cover slips were rinsed two times in 1×PBS, counterstained with 4′6-diamidino-2-phenylindole (DAPI; Molecular Probes, Eugene, Oreg., United States) and mounted on glass slides with Fluoromount (Molecular Probes). Staining against surface proteins was performed on cultures of living cells or on cells fixed with 2% paraformaldehyde. Staining with intracellular antibodies was performed by permeabilizing cells with ice-cold methanol for 4 min or by using 0.5% Triton for 15 mm on 2% parafomaldhyde-fixed cells. Antibody binding was detected with appropriate fluorescent dye-conjugated secondary antibodies at 10 μg/ml (Southern Biotech, Birmingham, Ala., United States) or Alexa Fluor-coupled antibodies at a concentration of 1 μg/ml (Molecular Probes), applied for 20 min. Anti-BrdU monoclonal antibody was obtained from Sigma.

O-2A/OPCs [6] = assay: Clonal analysis of division and differentiation; type: cell-based, rat; settings: co-exposure with MeHg; 1 mM NAC or PP1
Experimental: O-2A/OPCs purified from P7 rat optic nerve were plated in. poly-L-lysine-coated 25-cm^2 flasks at clonal density with DMBM medium in the presence of 10-ng/ml PDGF as previously described. After 24-h recovery, cells were treated with different toxicants, each for 3 d, until visual inspection and immunostaining was performed. NAC was added 1 h before exposure to other toxicants for NAC pretreatment, and NAC co-exists throughout the culture period. The numbers of O-2A/OPCs and oligodendrocytes in each clone were determined by counting under fluorescent microscope. […] Experiments were performed in triplicate in at least two independent experiments.

PDGFRα [7] = assay: PDGFRα phosphorylation (Western blot, anti-PDGFRα(pY742)); type: cell-based, rat; settings: co-exposure with MeHg
From the text: The cells were then collected and lysed for Western blotting. […] Cells were lysed for Western blot analysis using anti-PDGFRα(pY742) antibody. The membranes were de-probed and then re-probed with antibody against total PDGFRα and anti-β-tubulin antibody. […]
as §2

Fyn [8] = molecular target: T1, Fyn (Rattus norvegicus, UniProt Q62844); type: cell-based
T1 construct: 250 μg of total cell lysates were immunoprecipitated with anti-Fyn antibody; endogenous in cells; host or cells: primary rat O-2A/OPCs
T1 sequence (Q62844 whole entry): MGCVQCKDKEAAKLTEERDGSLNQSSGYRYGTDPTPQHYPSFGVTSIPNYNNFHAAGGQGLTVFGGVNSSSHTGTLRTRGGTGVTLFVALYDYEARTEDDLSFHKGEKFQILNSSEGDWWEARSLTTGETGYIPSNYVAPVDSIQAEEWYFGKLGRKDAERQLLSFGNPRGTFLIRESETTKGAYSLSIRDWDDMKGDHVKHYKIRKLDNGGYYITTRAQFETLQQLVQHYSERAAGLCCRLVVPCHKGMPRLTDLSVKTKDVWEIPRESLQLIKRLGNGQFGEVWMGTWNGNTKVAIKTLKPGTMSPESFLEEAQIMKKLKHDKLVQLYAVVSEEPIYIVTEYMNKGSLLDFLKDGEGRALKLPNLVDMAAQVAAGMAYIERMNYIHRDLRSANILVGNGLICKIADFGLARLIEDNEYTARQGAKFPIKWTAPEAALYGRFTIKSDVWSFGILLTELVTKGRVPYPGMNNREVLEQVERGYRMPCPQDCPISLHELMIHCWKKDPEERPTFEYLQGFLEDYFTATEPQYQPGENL
Experimental: Fyn kinase activity was quantified using the Universal Tyrosine Kinase Assay Kit (Takara, Madison, Wis., United States). O-2A/OPCs exposed to different treatments were solubilized with an equal volume of the extraction buffer provided with the kit for 15 min, and the resulting lysates were centrifuged at 13,000×g for 15 min at 4° C.; 250 μg of total cell lysates were immunoprecipitated with anti-Fyn antibody (Santa Cruz Biotechnology). Following immunoprecipitation, Fyn immune complexes were washed four times with extraction buffer, and then Fyn kinase activities of each sample were assayed using the kit according to the manufacturer's instructions.

PDGFRα [9] = assay: PDGFR ubiquitylation (immunoprecipitation assay); type: cell-based, rat; settings: co-exposure with MeHg
Experimental: as §3

MDA-MB-231 cell = MDA-MB-231 cell division by BrdU incorporation; type: cell-based; settings: NAC 1 mM or PP1 200 nM with 20 μM tamoxifen, 48 hours
Experimental: It has been reported that c-Cbl induced down-regulation of EGFR is disabled in cancer cells (Hirsch DS, Shen. Y, Wu WJ, (2006) Cancer Res. Apr 1;66(7):3523-30). Thus, growth and motility inhibition of breast cancer cells by EGFR degradation is correlated with inaetivation of Cdc42. […] Cells were cultured in phenol red-free growth media and exposed to TMX (0, 1 μM, 10 μM, 20 μM and 50 μM) for 48 hours, with or without 1 mM NAC. In FIG. 22C. MDA-MB-231 cell division was analyzed by BrdU incorporation analysis. […] Percentage of Brdu+ cells from DAPI+ cells was determined in each sample.

cancer cells = assay: Cancer cell viability (MTT assays), FIG. 22; type: cell-based; settings: TMX 1-50 μM, 48 hours
Fyn [10] = assay: Fyn protein level after RNAi (Western blot); type: cell-based, rat; settings: expression of RNAi construct
From the text: (§4) Anti-phosphorylated Erk monoclonal, anti-Erk monoclonal, anti-TrkC polyclonal anti-Fyn polyclonal, anti-EGFR polyclonal, anti-c-Met polyclonal, anti-phospho-tyrosine monoclonal, and anti-PDGFRα polyclonal antibodies were obtained from Santa Cruz Biotechnology (Santa Cruz, Calif., United States). Anti-c-Cbl monoclonal antibody was obtained from BD PharMingen (San Diego, Calif., United States). Anti-phosphorylated Akt monoclonal and anti-Akt polyclonal antibodies were obtained from Cell Signaling Technology (Beverly, Mass., United States). Anti-phosphorylated PDGPRα polyclonal antibody was obtained from Biosource (Carlsbad, Calif., United States). The cell culture samples were collected and lysed in RAPI buffer, whereas dissected tissue samples were sonicated in RAPI buffer. […]
(§5) siRNA target sites were selected by scanning the cDNA sequence for AA dinucleotides via siRNA target finder (Ambion, Austin, Tex., United States). Those 19-nucleotide segments that start with G immediately downstream of AA were recorded and then analyzed by BLAST search to eliminate any sequences with significant similarity to other genes. […]

c-Cbl [11] = assay: c-Cbl protein level after RNAi (Western blot); type: cell-based, rat; settings: expression of RNAi construct
From the text: as §4, §5

[12] = NAC 1 mM, PP1 100 nM or ICI 182,780 200 nM with TMX

CCO [EtOH, ethanol]
PDGF-induced phosphorylation of Akt (Akt): suppression
PDGF-induced phosphorylation of Erk1/2 (Erk1/2): suppression
levels of PDGFRα (PDGFRα [1]): decreased levels
levels of EGFR (EGFR): decreased levels
levels of TrkC (TrkC): unaltered
levels of c-Met (c-Met): decreased levels
c-Cbl phosphorylation (c-Cbl [2]): caused c-Cbl phosphorylation
decrease in the proportion of cells that were MTT+ (O-2A/OPCs [3]): ~25%
Fyn phosphorylation (Fyn [4]): caused Fyn phosphorylation

Cc1ccc(-c2nn(C(C)(C)C)c3ncnc(N)c23)cc1 [PP1]
effect on TMX effect on cell proliferation (O-2A/OPCs [5]): blocked
effect on MeHg-induced suppression of cell division at the clonal level (O-2A/OPCs [6]): blocked
effect on Aβ(1-42) suppression of PDGF-mediated Erk1/2 phosphorylation (Erk1/2; co-exposure with Aβ(1-42)): blocked
effect on MeHg-associated suppression of Erk1/2 phosphorylation (Erk1/2; co-treatment with MeHg): blocked
effect on MeHg-induced suppression of PDGFRα phosphorylation (PDGFRα [7]): protected
effect on TMX-induced reductions in levels of PDGFRα (PDGFRα [1]; [12]): blocked
effect on Aβ-induced reduction in PDGFRα levels (PDGFRα [1]; co-exposure with Aβ): blocked
effect on MeHg-induced reductions in levels of PDGFRα (PDGFRα [1]): blocked
effect on Pb- and paraquat-induced reductions in levels of PDGFRα (PDGFRα [1]): prevented
effect on TMX-induced activation of Fyn (Fyn [8]; [12]): blocked
effect on MeHg-induced Fyn activation (Fyn [8]; added 1 h before MeHg): blocked
effect on Pb- and paraquat-induced Fyn activation (Fyn [8]; added 1 h before Pb or paraquat): prevented
effect on TMX-induced activation of c-Cbl (c-Cbl [2]; [12]): blocked
effect on MeHg-induced c-Cbl phosphorylation (c-Cbl [2]; added 1 h before MeHg): blocked
effect on Aβ-induced increase in phosphorylated c-Cbl (c-Cbl [2]; co-exposure with Aβ): blocked
levels of ubiquitylated PDGFRα in MeHg-treated cells (PDGFRα [9]): marked reduction
rescue from tamoxifen effect on cell division (MDA-MB-231 cell): did not result in any rescue effect
effect on TMX effects on cancer cells (cancer cells): not blocked

B1: Fyn-RNAi: Fyn-specific siRNA construct, SEQ ID NO: 1 and 2 (nucleic acid)
chain 1: GTTTGCTCGACTTCTTAAATTCAAGAGATTTAAGAAGTCGAGCAAACTTTTTT
chain 2: AATTAAAAAAGTTTGCTCGACTTCTTAAATCTCTTGAATTTAAGAAGTCGAGCAAACGGCC
modifications: expressed or natural sequence
effect on MeHg-induced reductions in levels of PDGFRα (PDGFRα [1]): protected
effect on Pb- and paraquat-induced reductions in levels of PDGFRα (PDGFRα [1]): prevented
levels of Fyn protein (Fyn [10]): caused a reduction
levels of c-Cbl protein (c-Cbl [11]): had no effects

B2: Fyn-Scr-RNAi: scrambled negative control for Fyn RNAi, SEQ ID NO: 5 and 6 (nucleic acid)
chain 1: CCCGGGTTTCAATATATTTCTCAAGAGAAAATATATTGAAACCCGGGTTTTTT
chain 2: AATTAAAAAACCCGGGTTTCAATATATTTTCTCTTGAGAAATATATTGAAACCCGGGGGCC
effect on MeHg-induced reductions in levels of PDGFRα (PDGFRα [1]): not
levels of Fyn protein (Fyn [10]): had no effect

B3: c-Cbl RNAi: c-Cbl siRNA construct, SEQ ID NO: 3 and 4 (nucleic acid)
chain 1: GTGCATCCCATCAGTTCTGTTCAAGAGACAGAACTGATGGGATGCACTTTTTT
chain 2: AATTAAAAAAGTGCATCCCATCAGTTCTGTCTCTTGAACAGAACTGATGGGATGCACGGCC
modifications: expressed or natural sequence
effect on MeHg-induced reductions in levels of PDGFRα (PDGFRα [1]): protected
effect on Pb- and paraquat-induced reductions in levels of PDGFRα (PDGFRα [1]): prevented
levels of c-Cbl protein (c-Cbl [11]): caused a reduction
